{"source": "a melting point compilation (Tetko et al.; mined from patent text by program, amines drawn as free bases though some values may be those of a salt)", "data": [{"units": {"melting point": "°C"}, "values": [{"compound": "N#CC(c1ccccc1Cl)N1CCOCC1", "note": "(stereo unspecified)", "melting point": "40 to 42"}, {"compound": "CCc1cc2cc(O)c(Cl)c(Cl)c2s1", "melting point": "69 to 70"}, {"compound": "CCCCc1cc(CCCC)n2ncc(Br)c2n1", "melting point": "47 to 48"}, {"compound": "Oc1ccc(-c2ccc(C=C(Br)Br)s2)cc1", "melting point": "99 to 101"}, {"compound": "Cc1cccc2c1NC(=O)c1cscc1O2", "melting point": "194 to 195"}, {"compound": "CCCOc1ccc(C(=O)Nc2ccccc2NC(=O)c2ccc(OCCC)cc2)cc1", "melting point": 195}, {"compound": "O=C(O)c1ccc(OCC2CC(=O)N(c3ccc(OC4CCCCC4O)cc3)C2)cc1", "note": "(stereo unspecified)", "melting point": "203 to 208"}, {"compound": "COc1ccc(-c2ccc(C(=O)Nc3ccc4cc(CN5CCCC5)cnc4c3)cn2)cc1", "melting point": "246 to 248"}, {"compound": "CN(C)S(=O)(=O)c1cc2c(c(Cl)c1Cl)OC(C(=O)OCC(=O)OC(c1ccccc1)c1ccccc1)C2", "note": "(stereo unspecified)", "melting point": "56 to 58"}, {"compound": "O=C(O)c1cc2cc(OCc3ccccc3)ccc2cc1OCc1ccccc1", "melting point": "163 to 165"}, {"compound": "O=C(Cc1ccc(OCc2ccccc2)cc1)NC1(C(=O)O)Cc2ccc(-c3ccc(Cl)cc3)cc2C1", "note": "(stereo unspecified)", "melting point": 234}, {"compound": "COc1ccc([N+](=O)[O-])c2c1C(=O)CCC2", "melting point": "65 to 71"}, {"compound": "CCCCCCCNC(=O)Nc1ccccc1C(=O)NC1CCNCC1", "melting point": 159}, {"compound": "C=CCC(C(=O)NC)c1ccccc1", "note": "(stereo unspecified)", "melting point": "97 to 99"}, {"compound": "CC(C)N(CCON=C1c2ccccc2C2CC2c2ccccc21)C(C)C", "note": "(stereo unspecified)", "melting point": "97 to 98"}, {"compound": "CCCOc1ccccc1C1N=C2N=NC=C2C(=O)N1", "note": "(stereo unspecified)", "melting point": "182 to 184"}, {"compound": "CCOC(=O)c1[nH]c2ccccc2c1Br", "melting point": "150 to 152"}, {"compound": "O=C(Nc1ccc(Cl)cc1)c1ccc2cccnc2c1O", "melting point": "207 to 209"}, {"compound": "O=C(O)C1CC(Cl)=C(c2ccccc2)CC1C(=O)O", "note": "(stereo unspecified)", "melting point": "82 to 90"}, {"compound": "OC(Cn1cncn1)(Cn1ncnc1S)c1ccc(F)cc1F", "note": "(stereo unspecified)", "melting point": 187}, {"compound": "COc1cccc(CC(=O)O)c1OCCCc1cn(-c2ccc(Cl)cn2)nc1C(C)C", "melting point": "148 to 149"}, {"compound": "Cc1ccc(S(=O)(=O)OCC2Cc3cccc(-c4ccc(F)cc4F)c3O2)cc1", "note": "(stereo unspecified)", "melting point": "116 to 118"}, {"compound": "CCc1cc(O)c(C(=O)CCc2ccc3occc3c2)c(OC2OC(CO)C(O)C(O)C2O)c1", "note": "(stereo unspecified)", "melting point": "146 to 148"}, {"compound": "Nc1ccc(OC(=O)C2CCCCC2)c(C(=O)O)c1", "melting point": "116 to 121"}, {"compound": "CCCC(=O)c1cnc2c(OCCOC)cccc2c1Nc1ccccc1C", "melting point": "75 to 77"}, {"compound": "CCn1nc2c(N)nc3ncccc3c2c1CC(C)C", "melting point": "273 to 276"}, {"compound": "CCc1cccc(C)c1CNc1cc(C(=O)N(C)C)cc2[nH]c(C)nc12", "melting point": "228 to 230"}, {"compound": "CN1CCCC1Cc1ccc(N)cc1", "note": "(stereo unspecified)", "melting point": "59 to 61"}, {"compound": "O=C(O)c1cn(Cc2cccc(Oc3ccccc3)c2)nc1-c1ccccc1", "melting point": "148 to 149"}, {"compound": "CCOC(=O)CSc1nc2ccc(N)cc2s1", "melting point": "87 to 89"}, {"compound": "C=C(C)C1CCC2(C(=O)O)CCC3(C)C(CCC4C5(C)CCC(O)C(C)(C)C5CCC43C)C12", "note": "(stereo unspecified)", "melting point": "291 to 292"}, {"compound": "CCOC(=O)c1cn(Cc2ccccc2)nc1OCc1ccc(OCc2nc(-c3ccco3)oc2C)c(CC)c1", "melting point": "125 to 126"}, {"compound": "CC(=O)OC1CSC(Oc2cncc(-c3cccnc3Cl)c2)C(OC(C)=O)C1OC(C)=O", "note": "(stereo unspecified)", "melting point": 162}, {"compound": "N#Cc1c(C(N)=O)c2n(c1C1CC1)CCN(S(=O)(=O)c1ccc(C(F)(F)F)cc1)C2", "melting point": "253 to 256"}, {"compound": "Cc1cc(=O)c2ccc(OCCCCl)cc2o1", "melting point": "113 to 115"}, {"compound": "COC(=O)c1ccc2oc3c(c(=O)c2c1)CCC3=Cc1ccccn1", "melting point": "250 to 252"}, {"compound": "CCc1c(CC)n(Cc2ccccc2Cl)c2cc(C(N)=O)ccc12", "melting point": "185 to 188"}, {"compound": "CC(C)OC(=O)N[C@@H](C(=O)O)c1ccccc1", "melting point": "123 to 127"}, {"compound": "CN(C)C1=CCCS(=O)(=O)c2ccc(Cl)cc21", "melting point": "93 to 95"}, {"compound": "COc1ccc(C(=O)c2ccc(OCc3nc(-c4ccccc4)oc3C)nc2)c(OC(C)C(=O)O)c1", "note": "(stereo unspecified)", "melting point": "162 to 163"}, {"compound": "CCCCCCCCCCC(=O)C(=O)N[C@@H](CCCC)CCC(=O)O", "melting point": "50 to 52"}]}]}
